# Source: ChEMBL document CHEMBL4680263, “Identification of benzothiazinones containing 2-benzyl-2,7-diazaspiro[3.5]nonane moieties as new antitubercular agents” (Eur J Med Chem, 2020)
# Experiments:
# [1] = system: Mycobacterium tuberculosis; assay: Antimycobacterial activity against Mycobacterium tuberculosis H37Rv ATCC 27294 assessed as inhibition of bacterial growth incubated for 7 days by MABA assay; assay type: functional; settings: H37Rv ATCC 27294, 168 h, time 7 day
# [2] = Half life in BALB/c mouse at 12.5 mg/kg, po measured upto 24 hrs by HPLC analysis; assay type: ADME, organism-based; settings: in vivo
# [3] = AUC (0 to infinity) in BALB/c mouse at 12.5 mg/kg, po measured upto 24 hrs by HPLC analysis; assay type: ADME, organism-based; parameters: route oral, dose 12.5 mg/kg, time <=24; settings: in vivo
# [4] = Oral bioavailability in BALB/c mouse at 12.5 mg/kg measured upto 24 hrs by HPLC analysis; assay type: ADME, organism-based; settings: in vivo; for bioavailability: BALB/c
# [5] = Acute toxicity in BALB/c mouse assessed as mouse survival at 2 g/kg, po observed continuously for 4 hrs and each hr for next 24 hrs and at 8 hrs interval for following 7 days; assay type: organism-based; settings: in vivo, 2000 mg/kg, 168 h, time 7 day
# [6] = Cmax in BALB/c mouse at 2.5 mg/kg, iv measured upto 24 hrs by HPLC analysis; assay type: ADME, organism-based; parameters: route intravenous, dose 2.5 mg/kg, time <=24; settings: in vivo
# [7] = AUC (0 to infinity) in BALB/c mouse at 2.5 mg/kg, iv measured upto 24 hrs by HPLC analysis; assay type: ADME, organism-based; parameters: route intravenous, dose 2.5 mg/kg, time <=24; settings: in vivo
# [8] = Tmax in BALB/c mouse at 12.5 mg/kg, po measured upto 24 hrs by HPLC analysis; assay type: ADME, organism-based; settings: in vivo
# [9] = Half life in BALB/c mouse at 2.5 mg/kg, iv measured upto 24 hrs by HPLC analysis; assay type: ADME, organism-based; settings: in vivo
# [10] = Cytotoxicity against African green monkey Vero cells; assay type: cell-based; settings: chlorocebus sabaeus
# [11] = Cmax in BALB/c mouse at 12.5 mg/kg, po measured upto 24 hrs by HPLC analysis; assay type: ADME, organism-based; parameters: route oral, dose 12.5 mg/kg, time <=24; settings: in vivo
# [12] = system: Mycobacterium tuberculosis; assay: Antimycobacterial activity against Mycobacterium tuberculosis H37Rv infected in BALB/c mouse assessed as reduction in colony forming unit in lung at 25 mg/kg, po administered once daily for 5 days a week for 3 weeks (reference value: 5.35 +/- 0.17 log10CFU); assay type: functional
structure (smiles),measurement,setting,value
CC(c1ccc(Cl)cc1)N1CC2(CCN(c3nc(=O)c4cc(C(F)(F)F)cc([N+](=O)[O-])c4s3)CC2)C1 (centres undefined),MIC,[1],< 0.016 µg/mL
CC(c1ccc(Br)cc1)N1CC2(CCN(c3nc(=O)c4cc(C(F)(F)F)cc([N+](=O)[O-])c4s3)CC2)C1 (centres undefined),MIC,[1],< 0.016 µg/mL
CC(c1cc(F)cc(F)c1)N1CC2(CCN(c3nc(=O)c4cc(C(F)(F)F)cc([N+](=O)[O-])c4s3)CC2)C1 (centres undefined),half-life,[2],3.02 h
same,AUC(0-inf),[3],609 ng·h/mL
same,bioavailability,[4],15%
same,Activity,[5],Non-Toxic
same,Cmax,[6],723 ng/mL
same,AUC(0-inf),[7],812 ng·h/mL
same,MIC,[1],< 0.016 µg/mL
same,Tmax,[8],0.25 h
same,half-life,[9],3.25 h
same,CC50,[10],> 64 µg/mL
same,Cmax,[11],286 ng/mL
same,Activity,[12],>5 log10CFU
O=c1nc(N2CCC3(CC2)CN(Cc2cc(F)cc(F)c2)C3)sc2c([N+](=O)[O-])cc(C(F)(F)F)cc12,MIC,[1],< 0.016 µg/mL
CC(c1cccc(F)c1)N1CC2(CCN(c3nc(=O)c4cc(C(F)(F)F)cc([N+](=O)[O-])c4s3)CC2)C1 (centres undefined),MIC,[1],< 0.016 µg/mL
O=c1nc(N2CCC3(CC2)CN(Cc2ccc(C(F)(F)F)cc2)C3)sc2c([N+](=O)[O-])cc(C(F)(F)F)cc12,Activity,[5],Toxic
same,MIC,[1],< 0.016 µg/mL
same,CC50,[10],> 64 µg/mL
CC(c1ccc(F)c(F)c1)N1CC2(CCN(c3nc(=O)c4cc(C(F)(F)F)cc([N+](=O)[O-])c4s3)CC2)C1 (centres undefined),MIC,[1],< 0.016 µg/mL
CC(c1ccc(F)cc1)N1CC2(CCN(c3nc(=O)c4cc(C(F)(F)F)cc([N+](=O)[O-])c4s3)CC2)C1 (centres undefined),MIC,[1],< 0.016 µg/mL
CC(c1ccc(Cl)c(F)c1)N1CC2(CCN(c3nc(=O)c4cc(C(F)(F)F)cc([N+](=O)[O-])c4s3)CC2)C1 (centres undefined),half-life,[2],10.1 h
same,AUC(0-inf),[3],1940 ng·h/mL
same,bioavailability,[4],33%
same,Activity,[5],Non-Toxic
same,Cmax,[6],709 ng/mL
same,AUC(0-inf),[7],1170 ng·h/mL
same,MIC,[1],< 0.016 µg/mL
same,Tmax,[8],0.5 h
same,half-life,[9],7.5 h
same,CC50,[10],> 64 µg/mL
same,Cmax,[11],313 ng/mL
same,Activity,[12],>5 log10CFU
CC(c1cc(F)c(F)c(F)c1)N1CC2(CCN(c3nc(=O)c4cc(C(F)(F)F)cc([N+](=O)[O-])c4s3)CC2)C1 (centres undefined),half-life,[2],2.08 h
same,AUC(0-inf),[3],455 ng·h/mL
same,bioavailability,[4],18.3%
same,Activity,[5],Non-Toxic
same,Cmax,[6],463 ng/mL
same,AUC(0-inf),[7],498 ng·h/mL
same,MIC,[1],< 0.016 µg/mL
same,Tmax,[8],0.25 h
same,half-life,[9],1.86 h
same,CC50,[10],> 64 µg/mL
same,Cmax,[11],240 ng/mL
same,Activity,[12],>5 log10CFU
O=c1nc(N2CCC3(CC2)CN(Cc2ccc(F)cc2)C3)sc2c([N+](=O)[O-])cc(C(F)(F)F)cc12,MIC,[1],< 0.016 µg/mL
O=c1nc(N2CCC3(CC2)CN(Cc2cccc(F)c2)C3)sc2c([N+](=O)[O-])cc(C(F)(F)F)cc12,MIC,[1],< 0.016 µg/mL
CC(c1ccc(OC(F)(F)F)cc1)N1CCC2(CC1)CN(c1nc(=O)c3cc(C(F)(F)F)cc([N+](=O)[O-])c3s1)C2 (centres undefined),Activity,[5],Non-Toxic
same,MIC,[1],< 0.016 µg/mL
same,CC50,[10],> 64 µg/mL
same,Activity,[12],4.05 log10CFU
O=c1nc(N2CCC3(CC2)CN(C(c2ccc(F)cc2)c2ccc(F)cc2)C3)sc2c([N+](=O)[O-])cc(C(F)(F)F)cc12,MIC,[1],0.037 µg/mL
CC(c1ccc(F)c(Cl)c1)N1CC2(CCN(c3nc(=O)c4cc(C(F)(F)F)cc([N+](=O)[O-])c4s3)CC2)C1 (centres undefined),MIC,[1],< 0.016 µg/mL
CC(c1ccc(OC(F)(F)F)cc1)N1CC2(CCN(c3nc(=O)c4cc(C(F)(F)F)cc([N+](=O)[O-])c4s3)CC2)C1 (centres undefined),half-life,[2],6 h
same,AUC(0-inf),[3],3620 ng·h/mL
same,bioavailability,[4],24.2%
same,Activity,[5],Non-Toxic
same,Cmax,[6],1640 ng/mL
same,AUC(0-inf),[7],2990 ng·h/mL
same,MIC,[1],< 0.016 µg/mL
same,Tmax,[8],0.25 h
same,half-life,[9],8.51 h
same,CC50,[10],> 64 µg/mL
same,Cmax,[11],915 ng/mL
same,Activity,[12],>5 log10CFU
O=c1nc(N2CCC3(CC2)CN(Cc2ccc(OC(F)(F)F)cc2)C3)sc2c([N+](=O)[O-])cc(C(F)(F)F)cc12,MIC,[1],< 0.016 µg/mL
CC(c1ccc(F)cc1F)N1CC2(CCN(c3nc(=O)c4cc(C(F)(F)F)cc([N+](=O)[O-])c4s3)CC2)C1 (centres undefined),MIC,[1],< 0.016 µg/mL
CC(c1ccc(C(F)(F)F)cc1)N1CC2(CCN(c3nc(=O)c4cc(C(F)(F)F)cc([N+](=O)[O-])c4s3)CC2)C1 (centres undefined),half-life,[2],6.69 h
same,AUC(0-inf),[3],5500 ng·h/mL
same,bioavailability,[4],41.5%
same,Activity,[5],Non-Toxic
same,Cmax,[6],1390 ng/mL
same,AUC(0-inf),[7],2650 ng·h/mL
same,MIC,[1],< 0.016 µg/mL
same,Tmax,[8],0.25 h
same,half-life,[9],9.29 h
same,CC50,[10],> 64 µg/mL
same,Cmax,[11],1240 ng/mL
same,Activity,[12],>5 log10CFU
O=c1nc(N2CCC3(CC2)CN(Cc2ccc(Br)cc2)C3)sc2c([N+](=O)[O-])cc(C(F)(F)F)cc12,MIC,[1],< 0.016 µg/mL
NNC(=O)c1ccncc1 [ISONIAZID],MIC,[1],0.038 µg/mL
same,Activity,[12],>5 log10CFU
O=c1nc(N2CCN(CC3CCCCC3)CC2)sc2c([N+](=O)[O-])cc(C(F)(F)F)cc12 [MACOZINONE],half-life,[2],5.07 h
same,AUC(0-inf),[3],912 ng·h/mL
same,F,"[4]; 12.5 mg/kg, 24 h",11.8%
same,Cmax,[6],1840 ng/mL
same,AUC(0-inf),[7],1540 ng·h/mL
same,MIC,[1],< 0.016 µg/mL
same,Tmax,[8],0.25 h
same,half-life,[9],5.14 h
same,CC50,[10],> 64 µg/mL
same,Cmax,[11],734 ng/mL
same,Activity,[12],>5 log10CFU
CO[C@H]1/C=C/O[C@@]2(C)Oc3c(C)c(O)c4c(O)c(c(/C=N/N5CCN(C)CC5)c(O)c4c3C2=O)NC(=O)/C(C)=C\C=C\[C@H](C)[C@H](O)[C@@H](C)[C@@H](O)[C@@H](C)[C@H](OC(C)=O)[C@@H]1C [RIFAMPIN],MIC,[1],0.037 µg/mL
